Results taken from patent US8288423B2, “FXa inhibitors with cyclic amidines as P4 subunit, processes for their preparations, and pharmaceutical compositions and derivatives thereof” (Legochem Bioscience Ltd., priority 2007, dated 2012).

What was measured:
factor Xa = biological target: T1, factor Xa (Homo sapiens, UniProt P00742); assay: Inhibiting activity of factor Xa inhibitor (chromogenic substrate S-2765); format: biochemical; details: calculated from IC50 by Equation 1, Km 125 μM; S-2765 substrate, pH 7.8, 37° C.; read-out: Ki (nM), factor Xa inhibition constant
T1 construct: purchased Enzyme Research Laboratories
T1 sequence (P00742 235-488 limits assumed): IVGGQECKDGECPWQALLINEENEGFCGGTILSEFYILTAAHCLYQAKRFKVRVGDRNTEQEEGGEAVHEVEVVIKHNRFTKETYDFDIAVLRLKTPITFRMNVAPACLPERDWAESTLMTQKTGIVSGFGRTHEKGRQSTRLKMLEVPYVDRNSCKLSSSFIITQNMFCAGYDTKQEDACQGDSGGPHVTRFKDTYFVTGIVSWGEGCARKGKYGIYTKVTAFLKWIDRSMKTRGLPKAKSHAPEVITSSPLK
T1 sequence (P00742 41-179 partner limits assumed): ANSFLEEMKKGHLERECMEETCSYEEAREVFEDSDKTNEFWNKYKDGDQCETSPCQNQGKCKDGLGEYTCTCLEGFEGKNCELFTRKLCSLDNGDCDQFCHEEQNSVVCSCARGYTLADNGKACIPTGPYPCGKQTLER
Description: Relative rate of hydrolysis (as compared to control group without inhibition) was plotted versus logarithm of the concentration of the oxazolidinone derivative with a cyclic amidine represented by Chemical Formula (1) according to the invention, to obtain the concentration of the inhibitor for 50% decrease in the rate of hydrolysis of the substrate.
The inhibition constant can be obtained by spectrophotometry whereby the color development is determined as a function of time, after being reacted with a specific substrate which develops color upon hydrolysis caused by action of factor Xa.
For the inhibitor solution, the inhibitor compound according to the present invention was diluted with dimethylsulfoxide (DMSO) in 10 mM, and then further diluted with third-distilled water (finally 10% DMSO solution), and the solution (10 μL) was added to each well. […] The substrate solution (20 μL) thus prepared was added to each well.
Kinetic analysis of the reaction was performed by a kinetic plate reader (Molecular Devices, Spectramax 190) at 37° C. for 20 minutes.
Relative rate of hydrolysis (compared to control group without inhibition) versus logarithm of the oxazolidinone derivative with a cyclic amidine group (Chemical Formula I) was plotted to obtain the concentration of the inhibitor to decrease the rate of hydrolysis of the substrate by 50%. GraFit (version 5.0.12) program for statistical process purchased from Erithacus Software was employed.
When inhibition constant Ki is calculated, it can be calculated according to Equation (1).

Citrated plasma = assay: Measurement of PT (prothrombin time) in citrated plasma; format: biochemical; details: STA-Neoplastine, 37° C., unit not given (2×PT value)
Description: The effect of oxazolidinone derivatives with cyclic amidines represented by Chemical Formula (1) according to the invention on blood coagulation was compared by measuring PT (prothrombin time) and aPTT (activated Partial Thromboplastin Time). The procedure of measurement is described below. Citrated plasma was purchased from Daejeon-Chungnam Blood Institute (located at Daejeon, Korea). A compound solution (5 μL) according to the invention (in a various concentration gradient, 5% DMSO solution) was added to the plasma ([…]), and the reaction was carried out at 37° C. for 5 minutes. STA-Neoplastine (Diagnostica Stago) (100 μL) was then added thereto, and the duration for plasma coagulation was measured. The duration for plasma coagulation is determined as the point when the absorbance at 340 nm reaches 0.1.

plasma = assay: Measurement of aPTT (activated partial thromboplastin time) in plasma; format: biochemical; set-up: unit not given here; details: STA-PTT, CaCl2, 37° C., unit not given
Description: The effect of oxazolidinone derivatives with cyclic amidines represented by Chemical Formula (1) according to the invention on blood coagulation was compared by measuring PT (prothrombin time) and aPTT (activated Partial Thromboplastin Time). The procedure of measurement is described below. A solution (5 μL) of the oxazolidinone derivative with cyclic amidine group represented by Chemical Formula (1) according to the invention (in a various concentration gradient, 5% DMSO solution) was added to the plasma ([…]), and the reaction was carried out at 37° C. for 2 minutes. STA-PTT (Diagnostica Stago) (50 μL) was then added thereto. After the reaction at 37° C. for additional 5 minutes, 25 mM CaCl2 (50 μL) was added thereto, and the duration for plasma coagulation was measured. The duration for plasma coagulation was determined as the point when the absorbance at 340 nm reaches 0.1.

thrombus formation = assay: % inhibition against thrombus formation, arteriovenous shunt model in white rats; format: in vivo, white rats (male Sprague Dawley); set-up: concentration or dose not given beside the values; details: orally administered 1 hour before opening of the shunt; 15 minutes circulation; versus control group
Description: 3) Determination of % Inhibition Against Thrombus Formation by Means of Arteriovenous Shunt Model ([…]) in White Rats Antithrombotic effect of the compounds according to the present invention was evaluated by using arteriovenous shunt model in white rats. The animals used were male Sprague Dawleys with the body weight of 200-250 g. For one day before the experiment, the animals were fasted. Five to six animals were used for each test group. The compound of Example was orally administered 1 hour before opening of the shunt. The rats were anesthetized by abdominal administration of Rompun (Bay HealthCare) and Chloral hydrate or urethane in an amount of 12 and 50 mg per kg of the body weight. Into the left carotid artery and right jugular vein of the white rat, a polyethylene(PE)-60 tubing filled with physiological saline was inserted and secured. Both ends of individual PE tubing were connected to a silicone tubing having a length of 5 cm in which a cotton thread have been incorporated diagonally, and the shunt was open to provide circulation for 15 minutes. The shunt was then compressed by using jaws, and the cotton thread was carefully removed and the thrombus generated was weighed. The % inhibition of thrombus formation was calculated by using the weight of thrombus obtained from white rats of the control group to which a solution of oral administration was administered.

Ki (factor Xa)	SMILES	PT (Citrated plasma)	APTT (plasma)	% Inhibition (of thrombus formation) (thrombus formation)
12.8 nM	O=C(NC[C@H]1CN(c2ccc(N3CCN=C3c3ccncc3)cc2)C(=O)O1)c1ccc(Cl)s1 [Compound 126]	0.16	–	22%
6.14 nM	O=C(NC[C@H]1CN(c2ccc(N3CCN=C3c3cccnc3)cc2)C(=O)O1)c1ccc(Cl)s1 [Compound 127]	0.12	–	27%
13.9 nM	O=C(NC[C@H]1CN(c2ccc(N3CCN=C3c3ccccn3)cc2)C(=O)O1)c1ccc(Cl)s1 [Compound 128]	0.95	–	22%
0.92 nM	Cc1ccc(C2=NCCN2c2ccc(N3C[C@H](CNC(=O)c4ccc(Cl)s4)OC3=O)cc2)cc1 [Compound 129]	0.30	–	0%
8.6 nM	Cc1csc(C2=NCCN2c2ccc(N3C[C@H](CNC(=O)c4ccc(Cl)s4)OC3=O)cc2)n1 [Compound 130]	0.94	–	15%
1.21 nM	O=C(NC[C@H]1CN(c2ccc(N3CCN=C3c3cccc(Cl)c3)cc2)C(=O)O1)c1ccc(Cl)s1 [Compound 133]	0.26	–	44%
4.01 nM	O=C(NC[C@H]1CN(c2ccc(N3CCN=C3c3ccc(C(F)(F)F)cc3)cc2)C(=O)O1)c1ccc(Cl)s1 [Compound 134]	0.36	–	4%
2.63 nM	O=C(NC[C@H]1CN(c2ccc(N3CCN=C3c3ccc(Cl)s3)cc2)C(=O)O1)c1ccc(Br)s1 [Compound 140]	0.24	–	40%

The remaining lines, values behind:

SMILES	Ki (factor Xa)	PT (Citrated plasma)	APTT (plasma)	% Inhibition (of thrombus formation) (thrombus formation)
O=C(NC[C@H]1CN(c2ccc(C3=NCCCN3)cc2)C(=O)O1)c1ccc(Cl)s1 [Compound 106, 5-chlorothiophene-2-carboxylic acid {(S)-2-oxo-3-[4-(1,4,5,6-tetrahydropyrimidine-2-yl)-phenyl]-oxazolidin-5-ylmethyl}-amide]	13.1 nM	0.09	0.55	0%
CCN1CCN=C1c1ccc(N2C[C@H](CNC(=O)c3ccc(Br)s3)OC2=O)cc1 [Compound 109, 5-bromothiophene-2-carboxylic acid {(S)-3-[4-(1-ethyl-4,5-dihydro-1H-imidazol-2-yl)-phenyl]-2-oxo-oxazolidin-5-ylmethyl}-amide]	4.67 nM	–	–	26%
O=C(NC[C@H]1CN(c2ccc(N3C=NCC3)cc2)C(=O)O1)c1ccc(Cl)s1 [Compound 115]	1.29 nM	0.34	2.61	–
O=C(NC[C@H]1CN(c2ccc(N3CCN=C3C3CCC3)cc2)C(=O)O1)c1ccc(Cl)s1 [Compound 118]	69.9 nM	0.58	–	–
CC(C)CC1=NCCN1c1ccc(N2C[C@H](CNC(=O)c3ccc(Cl)s3)OC2=O)cc1 [Compound 119]	3.7 nM	0.03	–	4%
C=C(C)C1=NCCN1c1ccc(N2C[C@H](CNC(=O)c3ccc(Cl)s3)OC2=O)cc1 [Compound 120]	27.9 nM	0.31	–	37%
CC(C)=CC1=NCCN1c1ccc(N2C[C@H](CNC(=O)c3ccc(Cl)s3)OC2=O)cc1 [Compound 121]	1.81 nM	0.06	–	35%
O=C(NC[C@H]1CN(c2ccc(N3CCN=C3C3CCOC3)cc2)C(=O)O1)c1ccc(Cl)s1 (some centres unmarked) [Compound 125]	2.33 nM	0.05	–	42%
COC(=O)C(C)(C)C1=NCCN1c1ccc(N2C[C@H](CNC(=O)c3ccc(Cl)s3)OC2=O)cc1 [Compound 136]	1.78 nM	0.10	–	31%
